Source: patent US7151175B2, “Propenecarboxylic acid amidoxime derivatives, a process for the preparation thereof, and pharmaceutical compositions containing the same” (N-Gene Research Laboratories Inc., priority 2000, dated 2006)
Structures can show the parent of a compound that is named as a salt.

How the values were obtained:
[1] = target: T1, poly(adenosine diphosphate ribose)polymerase (PARP) (Rattus norvegicus, UniProt P27008); experiment: Determination of PARP inhibition, in vitro, on isolated enzyme; format: biochemical; conditions: PARP isolated from rat liver; four parallel measurements; read-out: PARP I0.5 (converted)
T1 construct: was isolated from rat liver according to the article of Shah, G. M; from tissue; host or cells: rat liver
T1 sequence (P27008 whole entry): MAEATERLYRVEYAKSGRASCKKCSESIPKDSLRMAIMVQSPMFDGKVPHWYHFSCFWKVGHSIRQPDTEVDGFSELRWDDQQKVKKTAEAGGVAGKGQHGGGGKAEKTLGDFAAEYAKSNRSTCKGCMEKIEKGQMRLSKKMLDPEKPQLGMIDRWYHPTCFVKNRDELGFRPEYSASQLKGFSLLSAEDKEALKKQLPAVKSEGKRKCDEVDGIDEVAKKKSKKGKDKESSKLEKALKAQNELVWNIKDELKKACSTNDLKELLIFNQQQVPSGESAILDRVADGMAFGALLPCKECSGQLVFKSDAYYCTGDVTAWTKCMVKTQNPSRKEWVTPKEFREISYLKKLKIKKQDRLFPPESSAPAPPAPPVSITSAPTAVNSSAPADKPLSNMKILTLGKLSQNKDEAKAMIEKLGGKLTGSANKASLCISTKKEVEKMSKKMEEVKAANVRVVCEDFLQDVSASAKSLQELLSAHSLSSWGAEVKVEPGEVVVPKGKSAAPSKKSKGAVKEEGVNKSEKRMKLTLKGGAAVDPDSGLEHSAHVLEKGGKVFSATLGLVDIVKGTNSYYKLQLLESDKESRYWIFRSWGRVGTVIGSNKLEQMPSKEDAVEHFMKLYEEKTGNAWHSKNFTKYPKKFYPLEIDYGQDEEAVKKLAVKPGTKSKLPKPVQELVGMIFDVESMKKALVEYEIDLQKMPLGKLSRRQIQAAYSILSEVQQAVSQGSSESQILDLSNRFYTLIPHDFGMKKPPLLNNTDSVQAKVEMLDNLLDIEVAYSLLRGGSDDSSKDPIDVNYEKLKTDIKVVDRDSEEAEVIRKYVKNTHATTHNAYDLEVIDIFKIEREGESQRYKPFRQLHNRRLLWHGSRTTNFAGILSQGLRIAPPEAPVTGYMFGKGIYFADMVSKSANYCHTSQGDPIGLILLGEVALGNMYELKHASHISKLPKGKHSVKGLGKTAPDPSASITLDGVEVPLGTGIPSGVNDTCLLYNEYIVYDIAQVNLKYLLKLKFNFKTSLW
Description: The poly(adenosine diphosphate ribose)polymerase was isolated from rat liver according to the article of Shah, G. M. [Anal. Biochem., 227, 1–13 (1995)]. The PARP activity was determined in 130 μl of reaction mixture consisting of 100 mM of tris-HCl buffer, pH 8.0, 10 mM of MgCl2, 10% glycerol, 1.5 mM of DTT, 100 μg of (32P) or (3H) NAD+, 10 μg of activated DNA, 10 μg of histone. [Tris-HCl is tris(hydroxymethyl)aminomethane hydrochloride.] After 10 minutes of incubation time, the reaction was stopped with 8% perchloric acid, and the protein was separated through centrifugation (10 minutes, 10.000×g). The precipitate was washed with 8% perchloric acid three times, and the radioactivity bound to the protein was measured with a scintillation counter.

[2] = system: C57BI mice; experiment: Experimental model of Parkinson's disease (MPTP); format: in vivo, mouse; conditions: four times 20 mg/kg MPTP intraperitoneally
From the text: Parkinson's disease (PD) is a common disabling idiopathic neurodegenerative disorder characterized by tremor, bradykinesia, rigidity and balance difficulties. These motor abnormalities are caused by the depletion of brain dopamine that results from the loss of dopaminerg neurons in the substantia nigra pars compacta. The analysis of the action of 1-methyl-4-phenyl-1,2,3,6-tetrahydropyridine (MPTP) having selective neurotoxicity shed light to the possible patomechanism of the Parkinson's disease. MPTP induces parkinsonian motor signs in both human and animals [Dexter, A. et al., Ann. Neurol., 35, 38–44 (1994)]. MPTP treatment results in a loss of dopaminergic neurons in the substantia nigra pars compacta, as well. Lewy body-like eosinophilic inclusions appear in the damaged neurons and the activity of mitochondrial complex I is also diminished in these cells. These alterations are characteristic for oxidative stress [Shapira, A., Adv. Neurol., 69, 161–165 (1996)]. The biologically active metabolite of MPTP is MPP [1-methyl-4-phenylpyridinium]. MPP inhibits directly complex I in mitochondria leading to increased generation of superoxide anion. […] After centrifugation (14000×g, 10 min, 4° C.), 20 μl of supernatant were injected onto a reverse phase catecholamine column (ESA, Bedford) and dopamine content was evaluated. […]

[3] = system: conscious rabbits; experiment: Hyperinsulinaemic euglycaemic clamp studies (insulin sensitivity); format: in vivo, rabbit
Description: It was investigated whether treatment with the compounds of the invention effected insulin sensitivity of normal and hypercholesterolaemic conscious rabbits. Adult male white New Zealand rabbits weighing 3–3.5 kg, housed in an animal room (12-hour light/dark periods a day, temperature of 22–25° C., humidity of 50–70%), fed commercial laboratory chow and tap water ad libitum were used throughout. The experimental period commenced after a two-week adaptation period. The rabbits were randomized into two main groups. Half of the animals were continued to feed normal rabbit chow, whereas the second group animals were fed chow enriched with 1.5% cholesterol over a period of eight week. Each main group was divided into four treatment groups: • untreated group, • group treated with a compound of the invention, 10 mg/kg i.v. dose twice a day over 4 days, • group treated with 7-nitroindazole as NOS inhibitor: administration of 5 mg/kg of 7-nitroindazole over 5 min. preceded insulin administration with a 5-min inter-infusion interval, • group treated with both 7-nitroindazole and the compound of the invention as described.
The animals were anaesthetized and polyethylene catheters were inserted into two major branches of the right jugular vein and the left carotid artery. The catheters were exteriorized through the back of the neck and filled with physiological saline containing heparin. […]

[4] = system: male SPRD rats; experiment: Heart ischemic failure and reperfusion arrhythmia (LAD occlusion/reperfusion); format: in vivo, rat; conditions: 5 min LAD occlusion, 10 min reperfusion
Description: Experiments were carried out in male SPRD rats (acceptable body weight range: 300–350 g). The animals were anesthetized by the administration of pentobarbital [5-ethyl-5-(1-methylbutyl)-2,4,6-(1H,3H,5H)-pyrimidintrione] (60 mg/kg intraperitoneally), and remained breathing spontaneously. The animals were ventilated with a respirator (manufactured by Kutesz, Hungarian Academy of Sciences) by using a trachea cannule inserted after tracheotomy. The standard lead of the ECG II was monitored. The right femoral artery was catheterized and connected to a pressure transducer (BPR-01, Experimetria, Hungary) and a preamplifier. The pulsotachometer (HG-M, Experimetria, Hungary) was started by the pulsating signal of arterial blood pressure. The external jugular vein was cannulated for drug administration. After thoracotomy, a silk (braided, coated 4-0) was placed under the left anterior coronary (LAD) artery. After a few minutes' stabilization period, a 5 min occlusion of LAD artery was applied followed by a 10 min reperfusion period. ECG was recorded in the normal state at the start and in the above periods. From the data of ECG, the span of time of ventricular tachycardia and fibrillation was determined in sec. In addition, the survival ratios in the treated animal groups were recorded.

[5] = system: male NMRI mice; experiment: Hepatotoxicity induced by acetaminophene (paracetamol); format: in vivo, mouse; conditions: dose of 50 mg/kg
Description: It was examined whether the liver damage induced with paracetamol can be prevented by the novel compounds of the formula I. The symptom of liver damage was characterized by an increase of the GOT and […] enzyme levels induced with paracetamol. The experiments were carried out on male NMRI mice of 30–40 g body weight. The animals were pretreated with the compounds of the formula I, perorally, for 7 days. On day 8, the mice were subjected to starvation for 12 hours, then a 500 mg/kg p.o. dose of paracetamol and a given dose of a compound of the formula I were administered. After 16 hours, the animals were bled to death and the activity of the GOT and GPT enzymes was measured in the serum. The results were analyzed by the non-parametric test of Mann and Whitney. As to the results, the average and the standard deviation are given wherein p<0.05 was considered as significant.

| Structure (SMILES) | IC50 [1] | other results |
| --- | --- | --- |
| O=c1onc(C=Cc2ccccc2)n1CC(O)CN1CCCCCC1 (centres unmarked) [Example 4, 3-Styryl-4-(3-hexamethyleneimino-2-hydroxypropyl)-Δ^2-1,2,4-oxadiazolin-5-one hydrochloride] | 40.8 µM |  |
| O=c1onc(C=Cc2ccccc2)n1CC(O)CN1CCCC1 (centres unmarked) [Example 3, 3-Styryl-4-(3-pyrrolidino-2-hydroxypropyl)-Δ^2-1,2,4-oxadiazolin-5-one-hydrochloride] | 25.4 µM |  |
| CN1CC=C(c2ccccc2)CC1 [MPTP, 1-methyl-4-phenyl-1,2,3,6-tetrahydropyridine] |  | decrease in striatal dopamine content [2]: 80% |
| O=[N+]([O-])c1cccc2cn[nH]c12 [7-nitroindazole] |  | effect on the insulin resistance ameliorating effect of the compounds of the invention ([3]; experimental hypercholesterolaemia): blocked the insulin resistance ameliorating effect; insulin resistance produced by the substance itself ([3]; normal animals, 5 mg/kg 7-nitroindazole): produced insulin resistance |
| O=c1onc(C=Cc2ccccc2)n1CC(O)CN1CCCCC1 (centres unmarked) [Example 2, 3-Styryl-4-(3-piperidino-2-hydroxipropyl)-Δ^2-1,2,4-oxadiazolin-5-one hydrochloride] | 27.3 µM | longer survival relative to the control group after reperfusion [4]: 50% |
| CC(C)(C)NCC(O)Cn1c(C=Cc2ccccc2)noc1=O (centres unmarked) [Example 6, 3-Styryl-4-[3-(tert.-butylamino)-2-hydroxypropyl]-Δ^2-1,2,4-oxadiazolin-5-one hydrochloride] | 53.6 µM |  |
| O=c1onc(C=Cc2ccccc2)n1CC(O)CN1CCc2ccccc2C1 (centres unmarked) [Example 8, 3-Styryl-4-[3-(1,2,3,4-tetrahydro-2-isoquinolyl)-2-hydroxypropyl]-Δ^2-1,2,4-oxadiazolin-5-one hydrochloride] | 31.8 µM |  |
| O=c1onc(C=Cc2ccccc2)n1CC(O)CN1CCOCC1 (centres unmarked) [Example 5, 3-Styryl-4-(3-morpholino-2-hydroxypropyl)-Δ^2-1,2,4-oxadiazolin-5-one hydrochloride] | 39.2 µM |  |

Now from value to molecule, other results behind:

| IC50 [1] | Structure (SMILES) | other results |
| --- | --- | --- |
| 19.2 µM | Cc1cccc(C)c1NCC(O)Cn1c(C=Cc2ccccc2)noc1=O (centres unmarked) [Example 9, 3-Styryl-4-[3-(2,6-dimethylanilino)-2-hydroxypropyl]-Δ^2-1,2,4-oxadiazolin-5-one hydrochloride] |  |
| 65.5 µM | ON=C(C=Cc1ccccc1)NCC(O)CN1CCOCC1 (centres unmarked) [Example 13, N-(3-Morpholino-2-hydroxypropyl)cinnamic acid amidoxime dihydrogen maleate] |  |
| 63.1 µM | C(=Cc1ccccc1)C1=NOC(CN2CCCCC2)CN1 (centres unmarked) [Example 16, 3-Styryl-6-(piperidinomethyl)-4H-5,6-dihydro-1,2,4-oxadiazine] |  |
| 28.3 µM | CN1CCN(CC(O)CNC(C=Cc2ccccc2)=NO)CC1 (centres unmarked) [Example 14, N-[3-(1-Methyl-4-piperazinyl)-2-hydroxypropyl]cinnamic acid amidoxime trihydrogen maleate] |  |
| 59.3 µM | ON=C(C=Cc1ccccc1)NCC(O)CN1CCCCC1 (centres unmarked) [Example 12, N-(3-Piperidino-2-hydroxypropyl)cinnamic acid amidoxime] | hepatoprotective effect [5]: very favourable hepatoprotective effect |
| 71.9 µM | COc1ccc(C=Cc2noc(=O)n2CC(O)CN2CCCCC2)cc1OC (centres unmarked) [Example 10, 3-(3,4-Dimethoxystyryl)-4-(3-piperidino-2-hydroxypropyl)-Δ^2-1,2,4-oxadiazolin-5-one hydrochloride] |  |
